Source: patent US6858638B2, “Substituted indazoles, compositions containing them, method of production and use” (Aventis Pharma S.A., priority 2002, dated 2005)

Key:
human FAK = target: T1, human FAK (Homo sapiens, UniProt Q05397); test: FAK autophosphorylation inhibition, time resolved fluorescence (HTRF) assay; assay type: biochemical; settings: 10 μM (values without asterisk); read-out: FAK % inhib at 10 μM
T1 construct: The complete cDNA of human FAK; made in house; host or cells: baculovirus expression system (vector pFastBac HTc)
T1 sequence (Q05397 whole entry): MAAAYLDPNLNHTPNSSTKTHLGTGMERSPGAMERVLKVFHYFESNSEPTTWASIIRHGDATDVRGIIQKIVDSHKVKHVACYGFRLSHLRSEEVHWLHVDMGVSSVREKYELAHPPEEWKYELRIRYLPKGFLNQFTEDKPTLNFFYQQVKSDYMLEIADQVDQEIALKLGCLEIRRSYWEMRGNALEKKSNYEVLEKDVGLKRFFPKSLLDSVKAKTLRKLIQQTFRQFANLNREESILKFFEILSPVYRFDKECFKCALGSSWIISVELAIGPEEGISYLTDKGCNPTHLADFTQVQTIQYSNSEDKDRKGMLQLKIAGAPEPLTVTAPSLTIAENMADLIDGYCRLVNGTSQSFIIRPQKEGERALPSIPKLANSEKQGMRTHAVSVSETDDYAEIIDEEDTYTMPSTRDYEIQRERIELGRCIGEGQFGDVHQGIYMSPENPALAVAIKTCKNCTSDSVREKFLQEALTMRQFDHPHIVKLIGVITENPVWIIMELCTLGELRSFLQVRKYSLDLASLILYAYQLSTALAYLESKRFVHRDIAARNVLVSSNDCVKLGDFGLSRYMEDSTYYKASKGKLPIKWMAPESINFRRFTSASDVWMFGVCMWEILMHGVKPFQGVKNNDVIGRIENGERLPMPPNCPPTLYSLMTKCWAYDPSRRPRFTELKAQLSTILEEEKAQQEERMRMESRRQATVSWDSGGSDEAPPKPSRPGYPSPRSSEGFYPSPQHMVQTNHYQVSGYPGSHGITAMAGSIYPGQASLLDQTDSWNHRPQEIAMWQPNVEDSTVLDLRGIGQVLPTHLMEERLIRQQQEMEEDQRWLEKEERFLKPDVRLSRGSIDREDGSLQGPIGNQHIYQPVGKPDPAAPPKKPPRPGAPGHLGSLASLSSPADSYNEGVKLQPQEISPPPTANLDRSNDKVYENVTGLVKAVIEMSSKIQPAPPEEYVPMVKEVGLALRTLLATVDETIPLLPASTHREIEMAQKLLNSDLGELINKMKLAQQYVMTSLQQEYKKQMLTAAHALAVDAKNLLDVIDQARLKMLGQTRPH
Outline: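 His-tagged full-length human FAK from baculovirus (6.6 µg/ml) self-phosphorylates with 15 µM ATP in HEPES pH 7.2, MgCl2, vanadate, 1 h at 37 °C. HTRF detection (Eu-anti-phosphotyrosine / XL665-anti-His), 665/620 nm ratio; % inhibition vs untreated control, duplicate mean.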

Aurora2 kinase = target: T2, Aurora2 kinase (Homo sapiens, UniProt O14965); test: Aurora2 kinase radioactivity scintillation assay using nickel chelate (NuMA substrate); assay type: biochemical; settings: 10 μM; read-out: Aurora2 % inhib at 10 μM
T2 construct: A complete recombinant Aurora2 enzyme; His tag (N); made in house; host or cells: E. coli
T2 sequence (O14965 1-403): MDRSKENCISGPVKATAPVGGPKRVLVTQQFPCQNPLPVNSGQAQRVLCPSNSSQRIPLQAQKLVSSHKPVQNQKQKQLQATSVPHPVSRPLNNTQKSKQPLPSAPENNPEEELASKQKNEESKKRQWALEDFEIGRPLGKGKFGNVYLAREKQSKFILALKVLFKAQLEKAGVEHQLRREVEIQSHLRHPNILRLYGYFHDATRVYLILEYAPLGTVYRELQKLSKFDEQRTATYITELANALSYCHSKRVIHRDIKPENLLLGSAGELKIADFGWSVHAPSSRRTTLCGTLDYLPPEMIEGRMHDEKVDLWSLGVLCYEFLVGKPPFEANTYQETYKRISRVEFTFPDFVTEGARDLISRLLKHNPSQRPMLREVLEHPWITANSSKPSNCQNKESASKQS
Outline: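 His-tagged full-length Aurora2 (0.02 μM, E. coli) phosphorylating His-tagged NuMA C-terminal fragment (0.5 μM) with 1 μM ATP plus [33P]-ATP, 30 min at 37 °C, pH 7.5 Tris buffer with MgCl2. Nickel-chelate scintillation read; percent inhibition versus no-compound control.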

c-Src protein = test: Src kinase phosphorylation of biotinylated cdc2 substrate, fluorescence (DELFIA); assay type: biochemical, human
Method: The inhibition of the Src kinase is evaluated by measuring the phosphorylation of the biotinylated cdc2 substrate (Pierce) detected by fluorescence (DELFIA) using an antiphosphotyrosine antibody labeled with Europium, in 96-well Wallac plates. The c-Src protein used is a recombinant human protein produced in Baculovirus, comprising the SH3 and SH2 and the catalytic domains. The enzyme, the substrate and the various concentrations of test compounds are placed in the well in a 50 mM Tris buffer containing 10 mM MgCl2. The reaction is initiated by adding 10 μM of ATP. After incubation for 60 minutes at 30° C., the reaction is stopped by adding 75 mM EDTA. 50 μl are taken from each well and transferred into a plate coated with streptavidin. After incubation for 30 minutes at 25° C., the wells are washed with a washing buffer (Wallac) and then the antiphosphotyrosine antibody (PY20-Europium [Perkin Elmer]) is added in a volume of 75 μl. The plate is incubated for 30 minutes at 25° C. and then an “Enhancer” solution (Wallac) is added before reading the fluorescence using a fluorimeter (Perkin Elmer). The background noise is evaluated in triplicate in wells containing the substrate and the antibody in the absence of enzyme. The activity of the enzyme is measured (in triplicate) in the wells containing all the reagents in the absence of compound. The inhibition of the Src activity is expressed as percentage inhibition of the activity of the control determined in the absence of compound. The compound PP2 (Calbiochem) is included at various concentrations in each experiment as an inhibition control.

human KDR enzyme = target: T3, human KDR enzyme (Homo sapiens, UniProt P35968); test: KDR substrate (PLCγ) phosphorylation, scintillation assay; assay type: biochemical; settings: 10 μM; read-out: KDR % inhib at 10 μM
T3 construct: The cytoplasmic domain of the human KDR enzyme; GST; made in house; host or cells: SF21 insect cells (baculovirus)
T3 sequence (P35968 786-1356 limits assumed): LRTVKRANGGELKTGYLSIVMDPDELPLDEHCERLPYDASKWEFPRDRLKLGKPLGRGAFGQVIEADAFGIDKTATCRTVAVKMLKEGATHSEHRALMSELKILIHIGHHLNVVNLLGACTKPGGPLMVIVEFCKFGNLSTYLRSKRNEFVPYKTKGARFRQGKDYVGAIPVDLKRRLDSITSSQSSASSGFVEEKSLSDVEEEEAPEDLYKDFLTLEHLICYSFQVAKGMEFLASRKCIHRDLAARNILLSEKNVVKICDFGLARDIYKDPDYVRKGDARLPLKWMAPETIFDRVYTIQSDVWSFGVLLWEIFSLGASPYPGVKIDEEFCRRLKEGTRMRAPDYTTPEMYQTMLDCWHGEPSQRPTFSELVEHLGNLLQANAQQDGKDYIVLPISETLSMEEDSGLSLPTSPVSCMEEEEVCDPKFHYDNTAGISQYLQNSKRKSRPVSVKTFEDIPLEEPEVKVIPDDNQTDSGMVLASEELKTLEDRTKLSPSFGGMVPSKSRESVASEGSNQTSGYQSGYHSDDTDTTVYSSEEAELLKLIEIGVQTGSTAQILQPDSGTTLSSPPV
Outline: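 GST-fused human KDR cytoplasmic domain from SF21 cells (about 60% pure, 100 ng) phosphorylated 2 μg of GST-PLCγ SH2-SH3 fragment. The trigger solution held γ33P-ATP with 2 μM cold ATP, in MOPS buffer pH 7.2 with Mg2+, Mn2+, vanadate and NaF. Reactions ran 1 h at 37 °C, were stopped with EDTA and counted by scintillation; results are % inhibition versus the no-compound control.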

HCT-15 cells = settings: concentration of 100 μM; cited from earlier work
NCI-H460 cells = settings: concentration of 100 μM; cited from earlier work

| SMILES | inhibition at 10 µM (human FAK) [%] | melting point [°C] | inhibition at 10 µM (Aurora2 kinase) [%] | SRC % inhib at 10 μM (c-Src protein) [%] | inhibition at 10 µM (human KDR enzyme) [%] | growth inhibition (HCT-15 cells) [%] | growth inhibition (NCI-H460 cells) [%] |
| --- | --- | --- | --- | --- | --- | --- | --- |
| CS(=O)(=O)c1ccccc1S(=O)(=O)Nc1ccc2[nH]nc(-c3csc4ccccc34)c2c1 [Example 64, N-(3-Benzo[b]thiophen-3-yl-1H-indazol-5-yl)-2-methylsulfonylbenzenesulfonamide] | 30 | 235 | 72 | 86 | 41 | – | – |
| CS(=O)(=O)c1ccccc1S(=O)(=O)Nc1ccc2[nH]nc(-c3cccc4ccccc34)c2c1 [Example 72, 2-Methylsulfonyl-N-(3-naphthalen-1-yl-1H-indazol-5-yl)-benzenesulfonamide] | 21 | 186 | 78 | 77 | 41 | – | – |
| CS(=O)(=O)c1ccccc1S(=O)(=O)Nc1ccc2[nH]nc(-c3ccc4ccccc4c3)c2c1 [Example 73, 2-Methylsulfonyl-N-(3-naphthalen-2-yl-1H-indazol-5-yl)-benzenesulfonamide] | 87 | 221 | 100 | 40 | 38 | – | – |
| O=S(=O)(Nc1ccc2[nH]nc(-c3ccccc3)c2c1)c1cccnc1 [Example 96, N-(3-Phenyl-1H-indazol-5-yl)pyridine-3-sulfonamide] | 67 | 225 | 100 | 83 | 91 | – | – |
| O=[N+]([O-])c1cccc(S(=O)(=O)Nc2ccc3[nH]nc(-c4ccccc4)c3c2)c1 [Example 97, 3-Nitro-N-(3-phenyl-1H-indazol-5-yl)benzenesulfonamide] | 50 | 228 | 93 | 76 | 96 | – | – |
| COc1cc(S(=O)(=O)Nc2ccc3[nH]ncc3c2)cc(OC)c1OC [N-(1H-indazol-5-yl)-3,4,5-trimethoxybenzenesulfonamide] | – | – | – | – | – | 47.6 | 18.5 |
